{
  "source": "patent US20260165325A1",
  "about": "“NEW SUBSTITUTED TETRAHYDROBENZOXAZEPINE” (BASF SE, priority 2022, published 2026)",
  "key": {"Alternaria solani": {"tested_on": "Alternaria solani", "test": "Activity against the early blight pathogen Alternaria solani in the microtiterplate test", "assay_type": "cell-based", "conditions": "31 ppm active substance; MTP measured at 405 nm 7 days after inoculation, 18° C."}, "Sclerotinia sclerotiorum": {"tested_on": "Sclerotinia sclerotiorum", "test": "Preventative fungicidal control of white mold on oilseed rape caused by Sclerotinia sclerotiorum", "assay_type": "in vivo", "conditions": "100 g/ha, assessed after 14 days, untreated plants 100% infected", "method": "The compound was dissolved in a mixture of acetone and/or dimethylsulfoxide and the wetting agent/emulsifier Wettol, which is based on ethoxylated alkylphenoles, in a ratio (volume) solvent-emulsifier of 99 to 1 to give a total volume of 5 ml. Subsequently, water was added to total volume of 100 ml. This stock solution was then diluted with the described solvent-emulsifier-water mixture to the final concentration given in the table below. Oilseed rapes were grown in pots to the 13 to 14 leaf stage. These plants were sprayed to run-off with previously described spray solution, containing the concentration of active ingredient or their mixture mentioned in the table below. The plants could air-dry. The next day the applicated rape petals were fixed with 25 μl of 2.5% methylcellulose on leaf 1 and 2. 25 μl of a spore suspension of Sclerotinia sclerotiorum was pipetted on each fixed rape petal. After 14 days at 20° C. and a relative humidity of 60% the extent of fungal attack on the leaves was visually assessed as % diseased leaf area."}, "Fusarium culmorum": {"tested_on": "Fusarium culmorum", "test": "Activity against Fusarium culmorum in the microtiterplate test", "assay_type": "cell-based", "conditions": "31 ppm active substance; MTP measured at 405 nm 7 days after inoculation, 18° C.", "method": "The active compounds were formulated separately as a stock solution having a concentration of 10000 ppm in dimethyl sulfoxide.\nThe stock solutions were mixed according to the ratio, pipetted onto a micro titer plate (MTP) and diluted with water to the stated concentrations. A spore suspension of Fusarium culmorum in an aqueous biomalt or yeast-bactopeptone-glycerine or DOB solution was then added. The plates were placed in a water vapor-saturated chamber at a temperature of 18° C. Using an absorption photometer, the MTPs were measured at 405 nm 7 days after the inoculation."}},
  "data": [
    {"smiles": "Cc1cc(C2NC(C)C(C)(C)Oc3c(F)cccc32)cnc1C", "note": "(mixture of isomers) [Ex-6]", "values": [
      {"measurement": "growth of the pathogen", "setting": "Alternaria solani", "result": 23, "unit": "%"}
    ]},
    {"smiles": "Cc1cc(C2NC(C)C(C)(C)Oc3c(F)cccc32)cnc1C(F)F", "note": "(mixture of isomers) [Ex-7]", "values": [
      {"measurement": "growth of the pathogen (% diseased leaf area)", "setting": "Sclerotinia sclerotiorum", "result": "at most 1%"},
      {"measurement": "growth of the pathogen", "setting": "Alternaria solani", "result": 23, "unit": "%"}
    ]},
    {"smiles": "Cc1cc(C2c3ccccc3OCC3(CC3)N2C)cnc1C(F)F", "note": "(centres unmarked) [Ex-1, 5-(6-(difluoromethyl)-5-methylpyridin-3-yl)-4-methyl-4,5-dihydro-2H-spiro[benzo[f][1,4]oxazepine-3,1′-cyclopropane]]", "values": [
      {"measurement": "growth of the pathogen", "setting": "Fusarium culmorum", "result": 1, "unit": "%"},
      {"measurement": "growth of the pathogen", "setting": "Alternaria solani", "result": 23, "unit": "%"}
    ]}
  ]
}
